Assay results as given in patent publication US20250381274A1 (priority 2022, published 2025).
Values joined by “and” are separate entries in the source; they are usually repeats but may differ in a detail not shown here. Identical values can stand only once. “Also recorded” adds a separate entry of the source. Like-named read-outs stand apart in the source and are kept apart here.

System: corneal buttons
Set-up: species or system rabbit
Description: • 3 rabbits, (n=8 pairs of 3 mm biopsy punched corneal buttons) • Laser Treatments: • Fidelity II, 1069 nm, 450 mW • Focusing: Marker/spark around, not touching the tissue • Objective: ZEISS 40X, NA=0.1463 • Z: increments 20 μm, 5 layers (several intervals) • 1stlayer 15 μm below surface of focus sparking • XY: 10 μm zigzag grid, 3 mm radius circle • With ˜12 gram compression • Motor speed 2.6 mm/s, full circle treatments: ˜25*5 mins • Sample Preparation: • −3 mm biopsy punch (1BT) • not connected to IV system • Prior to LT: 30 mins in 20% w/w Dextran 500 in PBS • 30 mins in 20% w/w ribose in DPBS (˜1.7M) • Post LT: Trypan blue is used to mark endothelium side • Imaged on the same day in DPBS • Overnight storage in DPBS in 4C fridge • 3 hrs prior to indentation, in room temp PBS • Piuma nano-indentation: • For each cornea button, the average of up to 16 indentations are acquired as
• 3 rabbits, (n=10 pairs of 3 mm biopsy punched corneal buttons) • 3 mm biopsy punch • not connected to IV system • Treatment Protocol-1 hr submerged in 20% w/v Ribose for all samples • 1 hr of UV-A lamp irradiation (control was not under UV) • Post Treatment Trypan blue is used to mark endothelium side • Imaged on the same day in DPBS • Overnight storage in DPBS in 4C fridge • 3 hrs prior to indentation, in room temp PBS • Piuma nano-indentation: • For each cornea button, the average of up to 16 indentations are acquired as representative modulus • The average of the representative modulus are presented in appended FIGS. 1-25.
Nano-Indentation: The corneal buttons were stored in PBS in a 4C fridge overnight for hydration equilibrium. Indentations of 5 μm depth using 29-35 μm diameter spherical indenters were performed on the anterior surface of the cornea buttons to acquire 25-second load-relaxation curves. For each button, the average of up to 16 indentations was used as the representative result. The equilibrium modulus and the viscoelastic ratio, defined as equilibrium modulus over instantaneous modulus, were calculated and compared.
Nanoindentation: Indentations were performed on the anterior surface of the cornea buttons. The equilibrium modulus E∞, instantaneous modulus Eo, and the viscoelastic ratio E∞/Eo, were calculated and compared.
After overnight incubation in PBS at 4C to reach equilibrium hydration, corneal buttons in Group A were allowed to return to room temperature the next morning after the respective treatment days while glued to the bottom of a petri-dish with the anterior surface of the corneal button facing upward. A displacement-controlled indenter (Piuma, Optics 11, Amsterdam, The Netherlands) was used to perform micro-indentations on top of the sample surface submerged in PBS; for each sample, multiple tests were performed following an array of 16 equally spaced (4×4) contact points with a spacing of 100 μm to 150 μm, covering roughly a 0.4×0.4 mm^2 area at the center of each corneal button. A spherical glass probe with a 34 μm radius and 0.2 N/m stiffness was used for samples in Group 1A; another spherical glass probe with a 25.5 μm radius and 4.09 N/m stiffness was used for Group 1B, 1C, 1D, and 2C. The indentation process at each contact point was comprised of three consecutive steps of loading Piezo movement of 5 μm for 2 seconds, holding time of 5 s, and unloading for 2 seconds. The load-relaxation curves obtained after indenting each point were then processed using a viscoelastic model to obtain equilibrium modulus and viscoelastic ratio following a fitting algorithm developed by Oyen.

[1] = 20% ribose 1 hr + 365 nm UVA lamp 1 hr
[2] = 20% ribose + 400 nm femtosecond laser
[3] = 20% ribose + 1069 nm femtosecond laser
[4] = 20% ribose + 1069 nm femtosecond laser, listed as Ribose

O=C[C@H](O)[C@H](O)[C@H](O)CO [ribose]
instantaneous modulus change vs paired control [1]: significantly increased | viscoelastic ratio change vs paired control (words) [1]: no change; also recorded: no significant E∞/Eo difference; also recorded: No significant changes; also recorded: None of the ROS-Glycation-CxL treatments produced a significant difference | equilibrium modulus change vs paired control (words) (20% ribose 1 hr + 365 nm UVA lamp 1 hr, coverslip): significantly increased; also recorded: significantly higher; also recorded: statistically significant differences | equilibrium modulus change vs paired control (words) (20% ribose 1 hr + 365 nm UVA lamp 1 hr, coverslip, listed as Ribose): significantly increased | viscoelastic ratio change vs paired control (words) (20% ribose 1 hr + 365 nm UVA lamp 1 hr, listed as Ribose): not significantly changed | equilibrium modulus change vs paired control (words) [2]: significantly higher; also recorded: statistically significant differences | viscoelastic ratio change vs paired control (words) [2]: No significant changes; also recorded: None of the ROS-Glycation-CxL treatments produced a significant difference | equilibrium modulus change vs paired control (words) [3]: significantly higher; also recorded: statistically significant differences | instantaneous modulus change vs paired control [3]: significantly increased | viscoelastic ratio change vs paired control (words) [3]: No significant changes; also recorded: None of the ROS-Glycation-CxL treatments produced a significant difference | equilibrium modulus change vs paired control (words) [4]: significantly increased | viscoelastic ratio change vs paired control (words) [4]: not significantly changed | equilibrium modulus (Group 1A: 20% ribose PBS 1 hr, then 1069 nm femtosecond laser 450 mW, coverslip pressed): 25 kPa and 26.7 kPa | equilibrium modulus (Group 1B: 20% ribose PBS 1 hr, then 400 nm femtosecond laser, coverslip pressed): 60 kPa and 63.2 kPa | equilibrium modulus (Group 1C: 20% ribose PBS 1 hr, then 365 nm UVA lamp 1 hr, coverslip pressed): 100 kPa and 115.3 kPa | equilibrium modulus, 1.5 hr vs 3 hr irradiation (Group 2C: ribose + 365 nm UVA lamp 1.5 hours vs 3 hours): no significant difference in mechanical properties; also recorded: no different in equilibrium modulus | viscoelastic ratio, 3 hr vs 1.5 hr irradiation (Group 2C: ribose + 365 nm UVA lamp 3 hours vs 1.5 hours): significantly higher viscoelastic ratio; also recorded: significant difference | equilibrium modulus, fold of control's modulus (ribose + 400 nm laser at 100 mW vs ribose-only control): ~4.6 fold | equilibrium modulus, fold of control's modulus (ribose + 1060 nm laser at 450 mW vs ribose-only control): ~3.8 fold | equilibrium modulus, fold of paired control modulus (ribose + one-hour 365 nm UVA lamp vs ribose-only control): ~8.2 fold | equilibrium modulus (ribose-only paired controls, no light exposure): around 10 kPa
